Data as given in patent US8389739B1, “Modulators of retinoid-related orphan receptor gamma” (Orphagen Pharmaceuticals, priority 2006, dated 2013).
Several values for one entry are separate records, joined by “and”; a condition that tells them apart may be missing. Identical values can stand only once. Entries after “also recorded” stand apart in the source; their conditions may differ.

Tests used:
liver triglyceridemia = settings: mice lacking the LXRα and LXRβ receptors; cited from earlier work
EAE = settings: mouse, in vivo; cited from earlier work
[1] = tested on: IL-17 release in lymph node cultures; test: Lymph node cell cultures from MOG35-55 immunized C57BL/6 mice, IL-17 ELISA; assay type: cell-based; settings: Mus musculus, 72 h; MOG and IL-23, 3 days, dose-response (FIG. 13F); read-out: EC50 for inhibition of IL-17 production
Procedure: FIGS. 13A-F. IL-17 levels in lymph node cells from mice immunized with myelin-derived peptides respond to cognate peptide antigens, IL-23 and RORγ ligands. (FIG. 13A) SJL/J mice were immunized by complete Freund's adjuvant (CFA) only or by Proteolipid Protein residues 139-151 (PLP139-151) emulsified in CFA. Lymph nodes were cultured for 3 days in with or without 40 μg/ml PLP in the presence or absence of OR-885. Culture media were analyzed by ELISA for IL-17. (FIGS. 13B-C) Lymph node cells from PLP-immunized SJL/J mice were cultured as before with the addition of 10 ng/ml IL-23 and 3 μM compounds. At the end of 1 day or 3 days in culture, Th-17 (CD4^+CD8^−IL17^+) cell frequency was measured by FACS (FIG. 13B) and compared to IL-17 levels in culture media (FIG. 13C). (FIGS. 13D-F) Lymph node cells from MOG35-55 immunized C57BL/6 mice were cultured for 3 days with 30 μg/ml MOG and/or 10 ng/ml IL-23. RORγ ligands were not added (FIG. 13D), or added at the beginning of the culture at a single concentration (FIG. 13E, 1 μM) or in multiple doses (FIG. 13F). […]
Overall, cultured lymph node cells that are stimulated with IL-23 and peptide antigens provide a model system to examine IL-17 production ex vivo (FIG. 13D). We analyzed a variety of RORγ ligands for their ability to regulate IL-17 (FIG. 13E). […] This potency is consistent with that measured in the CHO cell transcription assay.

[2] = tested on: splenic TH-17 and TH1 cells; test: Splenic TH-17 and TH1 cells in MOG-immunized C57BL/6 mice; assay type: in vivo; settings: 100 mg/kg oral gavage for 9 days
Procedure: C57BL/6 female mice were immunized with 150 μg […] on study day 0. Mice were treated with either OR-1050 at 100 mg/kg or with vehicle (HRC-6) by oral gavage for 9 days starting day O, Splenocytes were collected at Day 9 and stained for TH-17 (CD4^+CD8^−IL17^+) and TH1 (CD4^+CD8^−IFNγ^+) cells. Statistics were performed by Student's t-test.

[3] = Pharmacokinetics of OR-1050 in CD-1 mice, oral gavage; assay type: in vivo
Procedure: FIG. 12B. Bioavailability of OR-1050. OR-1050 was dosed in CD-1 mice at […] in HRC-6, a proprietary formulation that is commercially available from Pharmatek (San Diego, Calif.). Blood samples from triplicate animals were tested for levels of OR-1050 at multiple time points.
Pharmacokinetics of OR-1050 in CD-1 mice was analyzed at independent bioanalytical laboratory. Male CD-1 mice were treated via oral gavage with OR-1050 at 5 mg/kg in HRC-6. Blood was collected via retro-orbital puncture in tubes containing sodium heparin anticoagulant at 0, 5, 15, and 30 min, and at 1, 2, 4, 6, 8 and 24 hr after oral administration. The concentration of OR-1050 in plasma was determined using an HPLC/MS/MS method.

liver triglycerides = test: Liver triglycerides after oral dosing in C57BL/6 mice; assay type: in vivo
Procedure: […] A small piece of the liver (˜200 mg) was weighed and extracted to determine triglyceride content. Glycerol was liberated from liver triglycerides by hydrolysis in base. The liver fragment was incubated overnight at 55° C. in 0.35 mls of ethanolic KOH (2 parts EtOH: 1 part 30% KOH) in a closed tube. A solution of 50% ethanol in water was added to bring the volume of each tube to 1.0 ml. The solution was cleared of debris by centrifugation, and the resulting supernatant increased to 1.2 ml with further addition of 50% ethanol. Aqueous 1 M MgCl2 (215 μl) was added to 200 μl of the supernatant, and the mixture was cleared by centrifugation again after standing 10 min on ice. Glycerol levels were measured with the Sigma Free Glycerol Reagent (Sigma-Aldrich, St. Louis, Mo.) according to the manufacturer's instructions. The triglyceride concentration (in milligrams per gram of liver wet weight) was determined by assuming average molecular weight of 1000 daltons for each molecule of triglyceride.

SMILES: O=S(=O)(c1ccccc1)N(CC(F)(F)F)c1ccc(C(O)(C(F)(F)F)C(F)(F)F)cc1 [Compound T0901317, N-(2,2,2-Trifluoro-ethyl)-N-[4-(2,2,2-trifluoro-1-hydroxy-1-trifluoromethyl-ethyl)-phenyl]-benzenesulfonamide, reference compound]
- liver triglyceridemia (liver triglyceridemia): no effect on liver triglyceridemia
- development of murine EAE (EAE): inhibit the development of murine EAE

SMILES: C[C@@H]1CC[C@@]2(OC1)O[C@H]1C[C@H]3[C@@H]4CC[C@H]5C[C@@H](O)CC[C@]5(C)[C@H]4C[C@@H](O)[C@]3(C)[C@H]1[C@@H]2C [OR-885, 5α,20α, 22α, 25D-SPIROSTAN-3β, 12β-DIOL]
- EC50 [1]: ~200 nM

SMILES: CCN(c1ccc(C(O)(C(F)(F)F)C(F)(F)F)cc1)S(=O)(=O)c1ccc([N+](=O)[O-])cc1 [OR-1050, N-Ethyl-4-nitro-N-[4-(2,2,2-trifluoro-1-hydroxy-1-trifluoromethyl-ethyl)-phenyl]-benzenesulfonamide]
- change in TH1 cells [2]: no change in TH1 cells
- inhibition of splenic TH-17 cells ([2]; HRC-6, p<0.05, n=8-10): 29%
- blood levels suggested for a higher dosage ([3]; extrapolated to 50 mg/kg): 1 μg/ml and ~2 μM
- oral bioavailability, in words ([3]; mouse, in vivo, po): modest bioavailability; also recorded: orally-bioavailable; also recorded: orally bioavailable
- Liver triglycerides (liver triglycerides; OR-1050 100 mg/kg (50 mg/kg twice per day by gavage, corn oil) for 7 days, vehicle 34.7 ± 5.7): 119.5 ± 18.8 mg/g
- liver triglycerides, in words (liver triglycerides; daily exposure to 100 mg/kg OR-1050, six day study): markedly elevated
